# Laboratory results published in patent US8883792B2, “Substituted isoquinoline derivative” (D. Western Therapeutics Institute, Inc., priority 2010, dated 2014).
# Counter-ions that a name gives are not always drawn.
# Test system: rabbits (New Zealand White)
# Assay: Ocular hypotensive effect in rabbits
# Format: in vivo, rabbit
# Details: male New Zealand White rabbits, 0.04 mL eye drop, concentration of 1% (w/v) or lower, maximum ocular hypotensive rate vs vehicle-treated contralateral eye
# Experimental: The compound of the present invention was administered to rabbits (New Zealand White, sex: male, 3 to 6 per group) and evaluated for its ocular hypotensive effect.
# Each test compound was dissolved in a vehicle 1 (1.04 g of sodium dihydrogen phosphate dihydrate and 0.5 g of sodium chloride dissolved in purified water and then adjusted to pH 7.0 with sodium hydroxide to make the total amount to 100 mL) or a vehicle 2 (2% (w/v) aqueous boric acid solution) to prepare a test compound solution with a predetermined concentration.
# The intraocular pressures of the rabbits were measured using Tiolat TonoVet handheld tonometer immediately before administration of test compound. The test compound solution and the vehicle were dropped at a volume of 0.04 mL to one eye and the contralateral eye, respectively, and the intraocular pressures were measured over time in the same way as above. The rate of the intraocular pressure of the eye receiving the test compound solution to that of the eye receiving the vehicle was calculated as an ocular hypotensive rate.
row,Structure (SMILES),Ocular hypotensive activity
1,"C[C@H](CNCCC#N)NS(=O)(=O)c1ccc2cnccc2c1.Cl [Example 73, (R)—N-{1-(2-cyanoethylamino)propan-2-yl}isoquinoline-6-sulfonamide hydrochloride]",++ (maximum ocular hypotensive rate of 15% or more)
2,"C[C@H](CNCCc1cc2ccccc2[nH]1)NS(=O)(=O)c1ccc2cnccc2c1.Cl [Example 74, (R)—N-[1-{2-(1H-indol-2-yl)ethylamino}propan-2-yl]isoquinoline-6-sulfonamide hydrochloride]",++ (maximum ocular hypotensive rate of 15% or more)
3,"C[C@H](CNCCc1cc2ccccc2o1)NS(=O)(=O)c1ccc2cnccc2c1 [Example 75, (R)—N-[1-{(2-(benzofuran-2-yl)ethylamino}propan-2-yl]isoquinoline-6-sulfonamidedihydrochloride]",++ (maximum ocular hypotensive rate of 15% or more)
4,"C[C@H](CNCCc1ccc(F)cc1)NS(=O)(=O)c1cc2ccncc2cc1Br.Cl [Example 76, (R)-7-bromo-N-{1-(4-fluorophenethylamino)propan-2-yl}-isoquinoline-6-sulfonamide hydrochloride]",++ (maximum ocular hypotensive rate of 15% or more)
5,"C[C@H](CNCCc1ccc(F)cc1)NS(=O)(=O)c1ccc2cnccc2c1Br.Cl [Example 77, (R)-5-bromo-N-{1-(4-fluorophenethylamino)propan-2-yl}-isoquinoline-6-sulfonamide hydrochloride]",+ (maximum ocular hypotensive rate of 5% or more and less than 15%)
6,"C=C(C)CNC[C@@H](C)NS(=O)(=O)c1ccc2cnccc2c1.Cl [Example 78, (R)—N-{1-(2-methylallylamino)propan-2-yl}isoquinoline-6-sulfonamide hydrochloride]",++ (maximum ocular hypotensive rate of 15% or more)
7,"Cc1ncsc1CCNC[C@@H](C)NS(=O)(=O)c1ccc2cnccc2c1 [Example 79, (R)—N-[1-{2-(4-methylthiazol-5-yl)ethylamino}propan-2-yl]isoquinoline-6-sulfonamide dihydrochloride]",++ (maximum ocular hypotensive rate of 15% or more)
8,"C[C@H](CNCCCc1c[nH]c2ccccc12)NS(=O)(=O)c1ccc2cnccc2c1 [Example 80, (R)—N-[1-{3-(1H-indol-3-yl)propylamino}propan-2-yl]isoquinoline-6-sulfonamide dihydrochloride]",++ (maximum ocular hypotensive rate of 15% or more)
9,"C[C@H](CNCCc1ccccn1)NS(=O)(=O)c1ccc2cnccc2c1.Cl [Example 81, (R)—N-[1-{2-(pyridin-2-yl)ethylamino}propan-2-yl]isoquinoline-6-sulfonamide hydrochloride]",++ (maximum ocular hypotensive rate of 15% or more)
10,"C[C@H](CNCC(C)(O)c1ccccc1)NS(=O)(=O)c1ccc2cnccc2c1.Cl (stereo partly drawn) [Example 85, N-{(2R)-1-(2-hydroxy-2-phenylpropylamino)propan-2-yl}isoquinoline-6-sulfonamide hydrochloride]",++ (maximum ocular hypotensive rate of 15% or more)
11,"C[C@H](CNCC(O)c1cccnc1)NS(=O)(=O)c1ccc2cnccc2c1 (stereo partly drawn) [Example 88, N-[(2R)-1-{2-hydroxy-2-(pyridin-3-yl)ethylamino}propan-2-yl]isoquinoline-6-sulfonamide dihydrochloride]",+ (maximum ocular hypotensive rate of 5% or more and less than 15%)
12,"C[C@H](CNCC(O)c1cccc(Cl)c1)NS(=O)(=O)c1ccc2cnccc2c1 (stereo partly drawn) [Example 91, N-[(2R)-1-{2-(3-chlorophenyl)-2-hydroxyethylamino}propan-2-yl]isoquinoline-6-sulfonamide dihydrochloride]",++ (maximum ocular hypotensive rate of 15% or more)
13,"C[C@H](CNCCc1ccc(-c2ccccc2)cc1)NS(=O)(=O)c1ccc2cnccc2c1 [Example 92, (R)—N-[1-{2-(biphenyl-4-yl)ethylamino}propan-2-yl]isoquinoline-6-sulfonamide dihydrochloride]",++ (maximum ocular hypotensive rate of 15% or more)
14,"C[C@H](CNCCc1ccc(-c2ccncc2)cc1)NS(=O)(=O)c1ccc2cnccc2c1 [Example 93, (R)—N-[1-{4-(pyridin-4-yl)phenethylamino}propan-2-yl]isoquinoline-6-sulfonamide trihydrochloride]",++ (maximum ocular hypotensive rate of 15% or more)
15,"C[C@H](CNCCc1c[nH]nn1)NS(=O)(=O)c1ccc2cnccc2c1.Cl [Example 94, (R)—N-[1-{2-(1H-1,2,3-triazol-4-yl)ethylamino}propan-2-yl]isoquinoline-6-sulfonamide hydrochloride]",++ (maximum ocular hypotensive rate of 15% or more)
16,"C[C@H](CNCCc1nnn[nH]1)NS(=O)(=O)c1ccc2cnccc2c1 [Example 95, (R)—N-[1-{2-(1H-tetrazol-5-yl)ethylamino}propan-2-yl]isoquinoline-6-sulfonamide dihydrochloride]",+ (maximum ocular hypotensive rate of 5% or more and less than 15%)
17,"CCCCNC[C@@H](C)N(CC)S(=O)(=O)c1ccc2cnccc2c1.Cl [Example 96, (R)—N-[1-(butylamino)propan-2-yl]-N-ethylisoquinoline-6-sulfonamide hydrochloride]",++ (maximum ocular hypotensive rate of 15% or more)
18,"C[C@H](CNCCc1ccccc1)N(CCO)S(=O)(=O)c1ccc2cnccc2c1 [Example 97, (R)—N-(2-hydroxyethyl)-N-{1-(phenethylamino)propan-2-yl}isoquinoline-6-sulfonamide dihydrochloride]",++ (maximum ocular hypotensive rate of 15% or more)
19,"C[C@H](CN(C)CCc1ccccc1)NS(=O)(=O)c1ccc2cnccc2c1 [Example 99, (R)—N-[1-{methyl(phenethyl)amino}propan-2-yl]isoquinoline-6-sulfonamide dihydrochloride]",++ (maximum ocular hypotensive rate of 15% or more)
20,"C[C@H](CN(CCc1ccccc1)C(=O)CN)NS(=O)(=O)c1ccc2cnccc2c1.Cl [Example 100, (R)-2-amino-N-[2-(isoquinoline-6-sulfonamido)propyl]-N-phenylethylacetamide hydrochloride]",++ (maximum ocular hypotensive rate of 15% or more)
21,"C[C@H](CNC(=O)Cc1ccccc1)NS(=O)(=O)c1ccc2cnccc2c1.Cl [Example 103, (R)—N-{2-(isoquinoline-6-sulfonamido)propyl}-2-phenylacetamide hydrochloride]",++ (maximum ocular hypotensive rate of 15% or more)
22,"C[C@H](CNCC(=O)c1ccccc1)NS(=O)(=O)c1ccc2cnccc2c1 [Example 104, (R)—N-{1-(2-oxo-2-phenylethylamino)propan-2-yl}isoquinoline-6-sulfonamide dihydrochloride]",++ (maximum ocular hypotensive rate of 15% or more)
23,"C[C@H](CNCC(O)COc1ccccc1)NS(=O)(=O)c1ccc2cnccc2c1 (stereo partly drawn) [Example 108, N-{(2R)-1-(2-hydroxy-3-phenoxypropylamino)propan-2-yl}isoquinoline-6-sulfonamide dihydrochloride]",++ (maximum ocular hypotensive rate of 15% or more)
24,"C[C@H](CNCCc1ccccc1)NS(=O)(=O)c1ccc2c(N)nccc2c1.Cl [Example 109, (R)-1-amino-N-{1-(phenethylamino)propan-2-yl}isoquinoline-6-sulfonamide hydrochloride]",+ (maximum ocular hypotensive rate of 5% or more and less than 15%)
25,"C[C@H](CNCCc1ccccc1)NS(=O)(=O)c1ccc2c(O)nccc2c1.Cl [Example 110, (R)—N-{1-(phenethylamino)propan-2-yl}-1-hydroxyisoquinoline-6-sulfonamide hydrochloride]",++ (maximum ocular hypotensive rate of 15% or more)
26,"C[C@H](CNCCc1ccccc1)NS(=O)(=O)c1ccc2c(SCCN)nccc2c1 [Example 111, (R)-1-(2-aminoethylthio)-N-{1-(phenethylamino)propan-2-yl}isoquinoline-6-sulfonamide trihydrochloride]",+ (maximum ocular hypotensive rate of 5% or more and less than 15%)
27,"Cc1cncc2ccc(S(=O)(=O)N[C@H](C)CNCCc3ccccc3)cc12.Cl [Example 112, (R)—N-{1-(phenethylamino)propan-2-yl}-4-methyl-isoquinoline-6-sulfonamide hydrochloride]",++ (maximum ocular hypotensive rate of 15% or more)
28,"Cc1cncc2ccc(S(=O)(=O)N[C@H](C)CNCCc3ccc(F)cc3)cc12.Cl [Example 113, (R)—N-{1-(4-fluorophenethylamino)propan-2-yl}-4-methyl-isoquinoline-6-sulfonamide hydrochloride]",++ (maximum ocular hypotensive rate of 15% or more)
29,"C[C@H](CNCCc1ccccc1)NS(=O)(=O)c1ccc2cncc(-c3ccsc3)c2c1 [Example 115, (R)—N-{1-(phenethylamino)propan-2-yl}-4-(thiophen-3-yl) isoquinoline-6-sulfonamide dihydrochloride]",++ (maximum ocular hypotensive rate of 15% or more)
30,"N[C@H](CNS(=O)(=O)c1ccc2cnccc2c1)Cc1ccccc1 [Example 116, (S)—N-(2-amino-3-phenylpropyl)isoquinoline-6-sulfonamide dihydrochloride]",+ (maximum ocular hypotensive rate of 5% or more and less than 15%)
